The text below walks through data of patent publication US12077503B2, “Substituted cyclic amides and their use as herbicides” (FMC CORPORATION, priority 2015, dated 2024).

Structures are written as SMILES.

Format in all cases: in vivo
The test system of one assay is Kochia (Kochia scoparia). In words: Test A preemergence. As to conditions: Bassia scoparia, pre-emergence, 240 h, read-out: Plant response rating, Kochia; for pest or weed control at 125 g/ha: 125 g ai/ha, visual rating after approx. 10 d, 0 to 100 scale where 0 is no effect and 100 is complete control; for pest or weed control at 31 g/ha: Preemergence, 31 g ai/ha, 0 to 100 scale (0 no effect, 100 complete control). An outline of the steps:
(§1)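 Treatment is preemergence as a directed soil spray after planting, or postemergence at the one- to two-leaf stage, with test chemical in a non-phytotoxic solvent mixture plus surfactant. Plants stay in the greenhouse about 10 d before visual injury scoring on a 0 to 100 scale versus untreated controls.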

The subject of assay [1] is barnyardgrass (Echinochloa crus-galli). Kind of assay: Test A preemergence. The conditions noted are these: Echinochloa crus-galli, pre-emergence, 240 h, read-out: Plant response rating, Barnyardgrass; for pest or weed control at 125 g/ha: 125 g ai/ha, visual rating after approx. 10 d, 0 to 100 scale where 0 is no effect and 100 is complete control; for pest or weed control at 31 g/ha: Preemergence, 31 g ai/ha, 0 to 100 scale (0 no effect, 100 complete control). An outline of the steps: as §1

Assay [2] concerns giant foxtail (Setaria faberii). In words: Test A preemergence. The conditions noted are these: Setaria faberi, pre-emergence, 240 h, read-out: Plant response rating, Foxtail, Giant; for pest or weed control at 125 g/ha: 125 g ai/ha, visual rating after approx. 10 d, 0 to 100 scale where 0 is no effect and 100 is complete control; for pest or weed control at 31 g/ha: Preemergence, 31 g ai/ha, 0 to 100 scale (0 no effect, 100 complete control). In short, it runs like this: as §1

The subject of assay [3] is pigweed (Amaranthus retroflexus). In words: Test A preemergence. As to conditions: Amaranthus retroflexus, pre-emergence, 240 h, read-out: Plant response rating, Pigweed; for pest or weed control at 125 g/ha: 125 g ai/ha, visual rating after approx. 10 d, 0 to 100 scale where 0 is no effect and 100 is complete control; for pest or weed control at 31 g/ha: Preemergence, 31 g ai/ha, 0 to 100 scale (0 no effect, 100 complete control).

Assay [4] has as its system ragweed (common ragweed, Ambrosia elatior). In words: Test A preemergence. The conditions noted are these: Ambrosia artemisiifolia, pre-emergence, 240 h, read-out: Plant response rating, Ragweed; for pest or weed control at 125 g/ha: 125 g ai/ha, visual rating after approx. 10 d, 0 to 100 scale where 0 is no effect and 100 is complete control; for pest or weed control at 31 g/ha: Preemergence, 31 g ai/ha, 0 to 100 scale (0 no effect, 100 complete control). An outline of the steps:
as §1

The subject of assay [5] is ryegrass, Italian (Italian ryegrass, Lolium multiflorum). Kind of assay: Test A preemergence. As to conditions: Lolium multiflorum, pre-emergence, 240 h, read-out: Plant response rating, Ryegrass, Italian; for pest or weed control at 125 g/ha: 125 g ai/ha, preemergence, visual rating after approx. 10 d, 0 to 100 scale where 0 is no effect and 100 is complete control; for pest or weed control at 31 g/ha: Preemergence, 31 g ai/ha, 0 to 100 scale (0 no effect, 100 complete control). In short, it runs like this: as §1

In assay [6] the test system is barnyardgrass (Echinochloa crus-galli). In words: Test A postemergence. The conditions noted are these: Echinochloa crus-galli, post-emergence, 240 h, read-out: Plant response rating, Barnyardgrass; for pest or weed control at 125 g/ha: 125 g ai/ha, postemergence, visual injury after approximately 10 d, 0 to 100 scale (0 no effect, 100 complete control); for pest or weed control at 31 g/ha: Postemergence, 31 g ai/ha, visual injury after approx. 10 d, 0 to 100 scale, 0 no effect, 100 complete control. In short, it runs like this: as §1

The subject of assay [7] is giant foxtail (Setaria faberii). In words: Test A postemergence. The conditions noted are these: Setaria faberi, post-emergence, 240 h, read-out: Plant response rating, Foxtail, Giant; for pest or weed control at 125 g/ha: 125 g ai/ha, postemergence, visual injury after approximately 10 d, 0 to 100 scale (0 no effect, 100 complete control); for pest or weed control at 31 g/ha: Postemergence, 31 g ai/ha, visual injury after approx. 10 d, 0 to 100 scale, 0 no effect, 100 complete control. An outline of the steps:
as §1

The test system of assay [8] is pigweed (Amaranthus retroflexus). In words: Test A postemergence. The conditions noted are these: Amaranthus retroflexus, post-emergence, 240 h, read-out: Plant response rating, Pigweed; for pest or weed control at 125 g/ha: 125 g ai/ha, postemergence, visual injury after approximately 10 d, 0 to 100 scale (0 no effect, 100 complete control); for pest or weed control at 31 g/ha: Postemergence, 31 g ai/ha, visual injury after approx. 10 d, 0 to 100 scale, 0 no effect, 100 complete control. In short, it runs like this: as §1

Assay [9] concerns ryegrass, Italian (Italian ryegrass, Lolium multiflorum). Kind of assay: Test A postemergence. As to conditions: Lolium multiflorum, post-emergence, 240 h, read-out: Plant response rating, Ryegrass, Italian; for pest or weed control at 125 g/ha: 125 g ai/ha, postemergence, visual injury after approximately 10 d, 0 to 100 scale (0 no effect, 100 complete control); for pest or weed control at 31 g/ha: Postemergence, 31 g ai/ha, visual injury after approx. 10 d, 0 to 100 scale, 0 no effect, 100 complete control. An outline of the steps: as §1

The test system of assay [10] is barnyardgrass (Echinochloa crus-galli). Kind of assay: Test B flooded paddy test. The conditions noted are these: Echinochloa crus-galli, Flood, 250 g ai/ha; scale of 0 to 100 where 0 is no effect and 100 is complete control; read-out: Barnyardgrass plant response rating. In short, it runs like this: (§2)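 Compound goes directly into floodwater once pots are flooded 3 cm above soil, targeting plants at two leaves; the water depth is then held for the test duration. Plants sit 13–15 d in a greenhouse and are rated visually, 100 denoting complete control.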

Assay [11] deals with ducksalad (Heteranthera limosa). Kind of assay: Test B flooded paddy test. As to conditions: Heteranthera limosa, Flood, 250 g ai/ha; scale of 0 to 100 where 0 is no effect and 100 is complete control; read-out: Ducksalad plant response rating. An outline of the steps:
as §2

The test system of a further assay is rice (Oryra sativa). In words: Test B flooded paddy test. The conditions noted are these: Oryza sativa, Flood, 250 g ai/ha; scale of 0 to 100 where 0 is no effect and 100 is complete control; read-out: Rice plant response rating. An outline of the steps: as §2
Assay [12] has as its system sedge, umbrella (small-flower umbrella sedge, Cyperus difformis). Kind of assay: Test B flooded paddy test. The conditions noted are these: Cyperus difformis, Flood, 250 g ai/ha; scale of 0 to 100 where 0 is no effect and 100 is complete control; read-out: Sedge, Umbrella plant response rating. In short, it runs like this: as §2
The mark [13] stands for this setting: 500 g ai/ha, preemergence, 0 to 100 scale, 0 = no effect, 100 = complete control.

With `Cc1ccc([C@H]2CNC(=S)[C@@H]2C(=O)Nc2cccc(F)c2C)cc1C` [Compound 764], the pest or weed control at 125 g/ha was found to be 0% in the assay with Kochia (Kochia scoparia) (preemergence); 100% in [1] (preemergence); 70% in [2] (preemergence); 0% in assay [3] (preemergence); 0% in assay [4] (preemergence); 0% in [5]. Further, the pest or weed control at 125 g/ha in [6] stood at 80%; in assay [7], 0%; in assay [8], 0%; in assay [9], 30%. In addition, the pest or weed control at 500 g/ha is 0% with Kochia (Kochia scoparia) (setting [13]); 100% in assay [1] (setting [13]); 80% in [2] (setting [13]); 0% in assay [3] (setting [13]); 0% in [4] (setting [13]). Besides, the pest or weed control at 250 g/ha in [10] was found to be 50%; in assay [11], 90%; in the assay with rice (Oryra sativa), 0%; in assay [12], 0%.
Regarding `COc1cc([C@H]2CN(C)C(=O)[C@@H]2C(=O)Nc2cccc(F)c2F)ccc1C(F)(F)F` [Compound 770], the pest or weed control at 125 g/ha in the assay on Kochia (Kochia scoparia) (preemergence) was 0%; in assay [1] (preemergence), 90%; in assay [2] (preemergence), 90%; in assay [3] (preemergence), 90%; in [4] (preemergence), 0%; in assay [5], 0%. Moreover, the pest or weed control at 125 g/ha was 60% in assay [6], 70% in [7], 30% in assay [8] and 0% in assay [9]. Further, the pest or weed control at 31 g/ha in the assay on Kochia (Kochia scoparia) is 0%; in assay [1], 70%; in [2], 90%; in assay [3], 40%; in assay [4] it was 0%; in assay [5], 0%. The pest or weed control at 31 g/ha stood at 30% in assay [6], 60% in assay [7], 0% in assay [8] and 0% in [9]. Also, the pest or weed control at 250 g/ha (in assay [10]; in [11]; in the assay with rice (Oryra sativa); in assay [12]) was 0% each time.
As for `CSc1ccccc1NC(=O)[C@H]1C(=O)N(C)C[C@@H]1c1ccc(C(F)F)cc1` [Compound 799], the pest or weed control at 125 g/ha in the assay on Kochia (Kochia scoparia) (preemergence) amounted to 40%; in assay [1] (preemergence), 40%; in [2] (preemergence), 90%; in [3] (preemergence) it was 40%; in assay [4] (preemergence) it was 0%; in [5], 0%. In addition, the pest or weed control at 125 g/ha in [6] was 70%; in [7], 80%; in assay [8], 20%; in assay [9] it was 20%. In addition, the pest or weed control at 31 g/ha was determined as 0% in the assay with Kochia (Kochia scoparia); 0% in assay [1]; 70% in [2]; 30% in assay [3]; 0% in [4]; 0% in assay [5]. Moreover, the pest or weed control at 31 g/ha worked out at 40% in [6], 40% in assay [7], 0% in [8] and 0% in assay [9]. Moreover, the pest or weed control at 250 g/ha in assay [10] stood at 65%; in [11], 80%; in the assay with rice (Oryra sativa), 30%; in assay [12], 0%.
In the case of `CSc1ccccc1NC(=O)[C@H]1C(=O)N(C)C[C@@H]1c1cc(C)c(C)c(C)c1` [Compound 798], the pest or weed control at 125 g/ha with Kochia (Kochia scoparia) (preemergence) was 20%; in [1] (preemergence) it was 80%; in assay [2] (preemergence), 90%; in assay [3] (preemergence), 40%; in [4] (preemergence), 0%; in assay [5], 0%. Further, the pest or weed control at 125 g/ha in [6] turned out to be 80%; in [7], 70%; in [8], 20%; in assay [9] it was 40%. Also, the pest or weed control at 31 g/ha in the assay with Kochia (Kochia scoparia) turned out to be 0%; in assay [1], 20%; in assay [2], 70%; in assay [3] it was 30%; in assay [4] it was 0%; in [5] it was 0%. In addition, the pest or weed control at 31 g/ha in assay [6] was 40%; in assay [7], 20%; in assay [8] it was 0%; in assay [9], 0%. Also, the pest or weed control at 250 g/ha in assay [10] worked out at 75%; in assay [11] it was 50%; with rice (Oryra sativa), 40%; in [12], 0%.
